According to the supplement of paper PMC11061612:

Key:
Experiment in all cases: combination Emax (second highest fraction inhibited in the dose matrix, 72 h); higher = more inhibition; extreme values may be limits of the assay
[1] = tested on: SBC-3 (Small Cell Lung Carcinoma)
Outline: (§1)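 Cell lines in DMEM/F12 or RPMI with 10% FBS were plated in 1536-well plates, held 24 hours at 37°C, 5% CO2, then given two-drug dose matrices for 72 hours (DMSO typically 0.2%). Viability was read by CellTiter-Glo 2.0 luminescence and scaled as inhibition from 0 (vehicle wells) to 1 (blank wells). Combination Emax is the second-highest inhibition in the matrix; Bliss excess is observed combination effect minus expected EA + EB − EA·EB, EA and EB being single-agent effects.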

[2] = tested on: NCI-H1648 (Lung Adenocarcinoma)
Outline: as §1

[3] = tested on: NCI-H1435 (Non-Small Cell Lung Carcinoma)
Outline: as §1

[4] = tested on: COR-L105 (Lung Adenocarcinoma)
Outline: as §1

[5] = tested on: GCIY (Gastric Carcinoma)
Outline: as §1

[6] = tested on: SW1463 (Colorectal Carcinoma)
Outline: as §1

[7] = tested on: MRK-nu-1 (Breast Carcinoma)
Outline: as §1

[8] = tested on: BC-1 (B-Cell Non-Hodgkin's Lymphoma)
Outline: as §1

[9] = tested on: MDA-MB-175-VII (Breast Carcinoma)
Outline: as §1

Structure (SMILES) | combination Emax [1] | combination Emax [2] | combination Emax [3] | combination Emax [4] | combination Emax [5] | combination Emax [6] | combination Emax [7] | combination Emax [8] | combination Emax [9]
Cc1nc(-c2cn3c(n2)-c2ccc(-c4cnn(C(C)(C)C(N)=O)c4)cc2OCC3)n(C(C)C)n1 [Taselisib] + O=C(Nc1ccc2[nH]nc(-c3ccncc3)c2c1)[C@@H]1CCN(CC(=O)N2CCN(c3ccc(-c4ncccn4)cc3)CC2)C1 [SCH772984] (first compound max 10 µM, 7x7, partner max 5 µM) | 0.76 | 1 | 0.791 | 0.788 | 0.888 | 0.798 | 0.542 | 0.652 | 1
CN(CCO)CC[C@H](CSc1ccccc1)Nc1ccc(S(=O)(=O)NC(=O)c2ccc(N3CCC([C@@H](O)c4ccccc4-c4ccc(Cl)cc4)CC3)cc2)cc1S(=O)(=O)C(F)(F)F [AZD4320] + CS(=O)(=O)CCNCc1ccc(-c2ccc3ncnc(Nc4ccc(OCc5cccc(F)c5)c(Cl)c4)c3c2)o1 [Lapatinib] (first compound max 1 µM, 7x7, partner max 10 µM) | 0.407 | 0.952 | 0.953 | 0.917 | 0.956 | 0.974 | 0.387 | 0.961 | 1
CS(=O)(=O)CCNCc1ccc(-c2ccc3ncnc(Nc4ccc(OCc5cccc(F)c5)c(Cl)c4)c3c2)o1 [Lapatinib] + Cn1cnc2c(F)c(Nc3ccc(Br)cc3Cl)c(C(=O)NOCCO)cc21 [Selumetinib] (first compound max 10 µM, 7x7, partner max 10 µM) | 0.321 | 0.764 | 0.559 | 0.682 | 0.543 | 0.868 | 0.441 | 0.787 | 0.993
Cc1c2c(nn1C)CSCc1cc(n(C)n1)CSc1cc(c3ccccc3c1)OCCCc1c(C(=O)O)n(C)c3c-2c(Cl)ccc13 [AZD5991] + CS(=O)(=O)CCNCc1ccc(-c2ccc3ncnc(Nc4ccc(OCc5cccc(F)c5)c(Cl)c4)c3c2)o1 [Lapatinib] (first compound max 1 µM, 7x7, partner max 10 µM) | 0.28 | 0.895 | 0.219 | 0.688 | 0.447 | 0.51 | 1 | 1 | 0.973
C=CCn1c(=O)c2cnc(Nc3ccc(N4CCN(C)CC4)cc3)nc2n1-c1cccc(C(C)(C)O)n1 [AZD1775] + CCc1c2c(nc3ccc(O)cc13)-c1cc3c(c(=O)n1C2)COC(=O)[C@]3(O)CC [SN-38] (first compound max 1 µM, partner max 0.3 µM) | 0.946 | 0.842 | 0.547 | 0.478 | 0.756 | 0.587 | 0.81 | 1 | 0.659
C[C@@H](Nc1cc(F)cc(F)c1)c1cc(C(=O)N(C)C)cc2c(=O)cc(N3CCOCC3)oc12 [AZD8186] + CC(=O)c1c(C)c2cnc(Nc3ccc(N4CCNCC4)cn3)nc2n(C2CCCC2)c1=O [Palbociclib] (first compound max 10 µM, 7x7, partner max 10 µM) | 0.709 | 0.579 | 0.361 | 0.392 | 0.662 | 0.722 | 0.36 | 0.93 | 0.456
C[C@@H](Nc1cc(F)cc(F)c1)c1cc(C(=O)N(C)C)cc2c(=O)cc(N3CCOCC3)oc12 [AZD8186] + C1CN(CCC1(C(=O)N[C@@H](CCO)C2=CC=C(C=C2)Cl)N)C3=NC=NC4=C3C=CN4 [AZD5363] (first compound max 10 µM, 7x7, partner max 10 µM) | 0.446 | 0.707 | 0.258 | 0.41 | 0.743 | 0.274 | 0.305 | 0.577 | 0.573
O=C(c1cc(Cc2n[nH]c(=O)c3ccccc23)ccc1F)N1CCN(C(=O)C2CC2)CC1 [Olaparib] + Cc1c2c(nn1C)CSCc1cc(n(C)n1)CSc1cc(c3ccccc3c1)OCCCc1c(C(=O)O)n(C)c3c-2c(Cl)ccc13 [AZD5991] (first compound max 10 µM, 7x7, partner max 1 µM) | 0.523 | 0.384 | 0.117 | 0.0887 | 0.181 | 0.192 | 1 | 1 | 0.281
Cc1c2c(nn1C)CSCc1cc(n(C)n1)CSc1cc(c3ccccc3c1)OCCCc1c(C(=O)O)n(C)c3c-2c(Cl)ccc13 [AZD5991] + Nc1ccn([C@@H]2O[C@H](CO)[C@@H](O)C2(F)F)c(=O)n1 [Gemcitabine] (first compound max 1 µM, 7x7, partner max 0.3 µM) | 0.962 | 0.5 | 0.317 | 0.377 | 0.649 | 0.516 | 1 | 1 | 0.48
